System: M. smegmatis mc^2155 biofilm
Assay: Assay for M. smegmatis biofilm inhibition (pellicle formation in M63 medium)
Format: cell-based
Procedure: Two ml of 7H9/ADC culture medium was inoculated with […] of a starter culture of M. smegmatis mc^2155 in 40% glycerol and incubated at 37° C. without shaking for 16-24 hr. This culture was transferred into 10 ml of GAS medium and incubated in the incubator/shaker at 37° C. to an absorbance at 650 nm of <1.5, diluted to an absorbance of 0.02-0.03 in M63 culture medium. Then aliquots of 2.0 ml of this inoculated M63 medium were placed in sterile 1.5×10-cm glass tubes and the purified compounds to be tested were added. The test tubes were incubated in the heat block at 37° C. for 3 to 7 days. Pellicles began to form at the air-liquid interface of control culture on day-2, the pellicle thickened and cells began climbing up the surface of the glass. Such pellicles are recognized as biofilm. In the biofilm inhibition assay, the purified compounds dissolved in CM (2:1) were added at zero time and the development of biofilm was recorded on day-3 and -4.
In the biofilm inhibition assay, control culture began developing a smooth surface growth after two days and the cells began to climb up the wall of the tube. The surface growth continued and thickened over days-4 and -5. There was no observable submerged growth in the M63 medium over this period. […] After this period, rough surface pellicles began to appear along with some submerged growth (planktonic growth).

| Substance | concentration for complete inhibition of M. smegmatis biofilm formation | biological activity in M. smegmatis biofilm inhibition assay (concentration not given) |
| --- | --- | --- |
| C16:3-fatty acyl-/C25-mycocerosyl-phthiotriol diester | 12.5 µg/mL | – |
| Trehalose monomycolate [TMM, reference compound] | – | not active |

From patent US20130245116A1, “COMPOSITIONS AND METHODS FOR THE DISRUPTION OF MYCOBACTERIUM BIOFILM” (priority 2011, published 2013)
